Reference: paper PMC9238401, “Peptide Conjugates Derived from flg15, Pep13, and PIP1 That Are Active against Plant-Pathogenic Bacteria and Trigger Plant Defense Responses” (Applied and Environmental Microbiology, 2022)
Non-standard residues stand in square brackets, D forms with d. Residues, ends and D or L forms follow the SMILES beside them. No end group written: not given here. *: point of attachment. Butyryl = CCCC(=O)*

Experiments:
[1] = tested on: Erwinia amylovora PMV6076; experiment: In vitro growth inhibition (MIC); type: cell-based; details: TSB, 25°C, 48 h, OD 600 nm (Bioscreen C), three replicates, experiment repeated twice; MIC = lowest concentration with no growth, given as range
Procedure, shortened: (§1)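 Bacterial suspensions (10^8 CFU mL^−1, from 24 h plates at 25°C) mixed with peptide dilutions in TSB, triplicate wells. OD600 read hourly over 48 h at 25°C with shaking. MIC = lowest concentration with no growth at end of run.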

[2] = tested on: Pseudomonas syringae pv. actinidiae Psa3700.1.1; experiment: In vitro growth inhibition (MIC); type: cell-based; details: TSB, 25°C, 48 h, OD 600 nm (Bioscreen C), three replicates, experiment repeated twice; MIC given as range
Procedure, shortened: as §1

[3] = tested on: Pseudomonas syringae pv. syringae EPS94; experiment: In vitro growth inhibition (MIC); type: cell-based; details: TSB, 25°C, 48 h, OD 600 nm (Bioscreen C), three replicates, experiment repeated twice; MIC given as range
Procedure, shortened: as §1

[4] = tested on: Xanthomonas arboricola pv. pruni CFBP5563; experiment: In vitro growth inhibition (MIC); type: cell-based; details: TSB, 25°C, 48 h, OD 600 nm (Bioscreen C), three replicates, experiment repeated twice; MIC given as range
Procedure, shortened: as §1

[5] = tested on: Xanthomonas fragariae Xf349-9A; experiment: In vitro growth inhibition (MIC); type: cell-based; details: TSB, 25°C, 48 h, OD 600 nm (Bioscreen C), three replicates, experiment repeated twice; MIC given as range
Procedure, shortened: as §1

[6] = tested on: Xanthomonas axonopodis pv. vesicatoria 2133-2; details: TSB, 25°C, 48 h, OD 600 nm (Bioscreen C), three replicates, experiment repeated twice; MIC given as range
Procedure, shortened: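 Bacteria grown 24 h (48 h for Xanthomonas axonopodis, X. fragariae) at 25°C, suspended at 10^8 CFU mL^−1, mixed with peptide dilutions in TSB.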

[7] = tested on: plant-pathogenic bacteria (E. amylovora, X. arboricola pv. pruni, X. fragariae, X. axonopodis pv. vesicatoria, P. syringae pv. actinidiae, P. syringae pv. …); details: 24 h
[8] = tested on: horse erythrocytes; details: TRIS buffer pH 7.2, 1 h, 37°C, absorbance 540 nm, relative to melittin 100 μM, ± confidence interval (α = 0.05)
Procedure, shortened: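 Horse erythrocytes washed in 10 mM Tris, 150 mM NaCl, pH 7.2 were mixed 1:1 with compound solutions at 750, 500, 300 and 100 μM and shaken 1 h at 37°C. Hemoglobin release read at 540 nm in supernatant; % hemolysis relative to buffer and melittin control.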

[9] = tested on: tobacco leaves; experiment: Effect of peptide infiltration on tobacco leaves (phytotoxicity); type: in vivo
Procedure, shortened: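 Peptide solutions at 50, 150 and 250 μM were infiltrated into the mesophyll of fully expanded tobacco leaves, with at least three leaves per peptide and dose on different plants. Water and equimolar melittin served as controls. Lesion diameter was measured 48 h after infiltration.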

[10] = HPLC retention time as indicator of relative hydrophobicity; type: physicochemical; details: chromatographic, Kromasil 100 C18 (4.6 mm × 40 mm, 3 μm), linear gradient 2 to 100% B over 12 min, 1 mL/min; A 0.1% aqueous TFA, B 0.1% TFA in CH3CN; used as indicator of relative hydrophobicity
Experimental: The parameters related to the structure of the peptide conjugates (sequence, charge, hydrophobic ratio [HR], and HPLC retention time), as well as their physicochemical properties (grand average hydropathicity [GRAVY] and hydrophobic moment [<μH>]) obtained from the online programs ProtParam (Expasy server) and HeliQuest are included in Table 1.
Peptides were analyzed under standard analytical HPLC conditions. Method A: peptides were analyzed with a Dionex liquid chromatography instrument composed of a UV/Vis Dionex UVD170U detector, a P680 Dionex pump, an ASI-100 Dionex automatic injector, and Chromeleon 6.60 software. Detection was performed at a wavelength of 220 nm. Solvent A was 0.1% aqueous trifluoroacetic acid (TFA), and solvent B was 0.1% TFA in CH3CN. Analyses were carried out with a Kromasil 100 C18 (4.6 mm × 40 mm, 3 μm) column with a linear gradient of 2 to 100% B over 7 min at a flow rate of 1 mL/min. Method B: peptides were analyzed with a 1260 Infinity II liquid chromatography instrument (Agilent Technologies) composed of a diode array detector HS, a quaternary pump VL, a 1260 vial sampler, and OpenLab CDS ChemStation software. Analyses were carried out with a Kromasil 100 C18 (4.6 mm × 40 mm, 3 μm) column with a linear gradient of 2 to 100% B over 12 min at a flow rate of 1 mL/min.

[11] = 100 μL infiltrated into mesophyll, lesion diameter 48 h after infiltration, at least three leaves, ± confidence interval (α = 0.05)

| Compound | MIC, Ea [1] [µM] | MIC, Psa [2] [µM] | MIC, Pss [3] [µM] | MIC, Xap [4] [µM] | MIC, Xf [5] [µM] | MIC, Xav [6] [µM] | MIC against all the bacteria tested (span over the six pathogens) [7] [µM] | Percent hemolysis at 50 μM [8] [%] | Percent hemolysis at 150 μM [8] [%] | Percent hemolysis at 250 μM [8] [%] | Percent hemolysis at 375 μM [8] [%] | Size of the lesions in infiltrated tobacco leaves at 50 μM ([9]; in vivo) [cm] | Size of the lesions in infiltrated tobacco leaves at 150 μM ([9]; in vivo) [cm] | Size of the lesions in infiltrated tobacco leaves at 250 μM ([9]; in vivo) [cm] | tR (min), HPLC retention time (method B) [10] [min] | MIC against four pathogens [7] [µM] | Size of the lesions in infiltrated tobacco leaves at 50 μM [9, 11] [cm] | Size of the lesions in infiltrated tobacco leaves at 150 μM [9, 11] [cm] | Size of the lesions in infiltrated tobacco leaves at 250 μM [9, 11] [cm] |
| --- | --- | --- | --- | --- | --- | --- | --- | --- | --- | --- | --- | --- | --- | --- | --- | --- | --- | --- | --- |
| VWNQPVRGFKVYEKKLFKKILKYL-NH2 [Pep13-BP100] | 6.2 to 12.5 | 3.1 to 6.2 | 6.2 to 12.5 | 0.8 to 1.6 | 6.2 to 12.5 | 0.8 to 1.6 | 0.8 to 12.5 | 9 ± 1.0 | 25 ± 2.4 | 45 ± 9.0 | 49 ± 9.2 | 0.26 ± 0.08 | 0.56 ± 0.13 | 0.70 ± 0.15 | 6.14 |  |  |  |  |
| KKLFKKILKYLVWNQPVRGFKVYE [BP100-Pep13] | 0.8 to 1.6 | 0.8 to 1.6 | 1.6 to 3.1 | 1.6 to 3.1 | 3.1 to 6.2 | 1.6 to 3.1 |  | 5 ± 0.3 | 12 ± 1.1 | 20 ± 2.4 | 30 ± 3.2 | 0.04 ± 0.08 | 0.32 ± 0.11 | 0.42 ± 0.10 | 5.53 | 0.8 to 3.1 |  |  |  |
| VWNQPVRGFKVYEKKLFKKILKKL-NH2 [Pep13-BP16] | 6.2 to 12.5 | 1.6 to 3.1 | 6.2 to 12.5 | 0.8 to 1.6 | 3.1 to 6.2 | 0.8 to 1.6 | 0.8 to 12.5 | 2 ± 0.6 | 3 ± 0.2 | 4 ± 0.3 | 4 ± 0.2 | 0.23 ± 0.07 | 0.52 ± 0.14 | 0.93 ± 0.19 | 5.70 |  |  |  |  |
| CCCC(=O)NCCCC[C@H](NC(=O)[C@H](CCCCN)NC(=O)[C@H](CC(C)C)NC(=O)[C@@H](NC(=O)[C@H](CCCCN)NC(=O)[C@H](CCCCN)NC(=O)[C@@H](Cc1ccccc1)NC(=O)[C@H](CC(C)C)NC(=O)[C@H](CCCCN)NC(=O)[C@H](CCCCN)NC(C)=O)[C@@H](C)CC)C(=O)N[C@@H](CC(C)C)C(=O)N[C@@H](Cc1ccc(O)cc1)C(=O)NCC(=O)N[C@H](C(=O)N[C@@H](Cc1c[nH]cn1)C(=O)N[C@H](C(=O)N[C@@H](Cc1c[nH]cn1)C(N)=O)[C@@H](C)O)[C@@H](C)CC [BP475-PIP1] (Ac-KKL[dF]KKILKK(Butyryl)LYGIHTH-NH2) | 3.1 to 6.2 | 1.6 to 3.1 | 6.2 to 12.5 | 0.8 to 1.6 | 1.6 to 3.1 | 3.1 to 6.2 |  | 9 ± 1.0 | 18 ± 1.4 | 26 ± 2.8 | 39 ± 2.0 |  |  |  | 6.28 |  | 0.47 ± 0.06 | 1.40 ± 0.00 | 1.67 ± 0.13 |
